From US20220096516A1, “OLIGONUCLEOTIDE MOLECULE AND APPLICATION THEREOF IN TUMOR THERAPY” (Ractigen Therapeutics, priority 2019, published 2022)
d = 2'-deoxy (DNA); r = 2'-OH (RNA)

Tested on: LHPP gene
Assay: High-throughput screening of saRNAs targeting LHPP promoter: LHPP mRNA by one-step RT-qPCR in Huh7 cells
Assay type: cell-based, human
Conditions: 10 nM saRNA, 72 hours, relative to control (Mock)
Method in brief: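 LHPP transcript level relative to mock, normalised to the geometric mean of the HPRT1 and TBP reference genes, measured by one-step RT-qPCR on crude lysates. Huh7 cells had been RNAiMax-transfected with each saRNA at 10 nM for 72 h.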

Substance	Fold of changes in relative LHPP mRNA expression level [fold]	Fold of changes in relative LHPP mRNA expression level (log2)
RAG7-698: saRNA duplex; sense GCCCAGGUCCUAUGCAUCCTT (SEQ ID NO: 118), antisense GGAUGCAUAGGACCUGGGCTT (SEQ ID NO: 282) (sugars from the 5' end r19 d2, backbone not given here)	1.18	0.24
RAG7-140: saRNA duplex; sense UUUUCCUGCUCUUUGUCCGTT (SEQ ID NO: 74), antisense CGGACAAAGAGCAGGAAAATT (SEQ ID NO: 238) (sugars from the 5' end r19 d2, backbone not given here)	1.28	0.36
RAG7-43: saRNA duplex; sense CAGUUCCGGGUUUGCACCCTT (SEQ ID NO: 93), antisense GGGUGCAAACCCGGAACUGTT (SEQ ID NO: 257) (sugars from the 5' end r19 d2, backbone not given here)	1.23	0.30
RAG7-844: saRNA duplex; sense GGUUCCGAGGGGCCAUUGATT (SEQ ID NO: 129), antisense UCAAUGGCCCCUCGGAACCTT (SEQ ID NO: 293) (sugars from the 5' end r19 d2, backbone not given here)	1.17	0.22
RAG7-29: saRNA duplex; sense CACCCGGUCUUCUUGCCCUTT (SEQ ID NO: 79), antisense AGGGCAAGAAGACCGGGUGTT (SEQ ID NO: 243) (sugars from the 5' end r19 d2, backbone not given here)	1.28	0.35
RAG7-193: saRNA duplex; sense GUGCCUUCUUGUCUCAAUUTT (SEQ ID NO: 113), antisense AAUUGAGACAAGAAGGCACTT (SEQ ID NO: 277) (sugars from the 5' end r19 d2, backbone not given here)	1.19	0.26
RAG7-113: saRNA duplex; sense CUGGGAAGAAAGCUUCCGATT (SEQ ID NO: 120), antisense UCGGAAGCUUUCUUCCCAGTT (SEQ ID NO: 284) (sugars from the 5' end r19 d2, backbone not given here)	1.18	0.24
RAG7-707: saRNA duplex; sense UUCUUCUCAGCCCAGGUCCTT (SEQ ID NO: 8), antisense GGACCUGGGCUGAGAAGAATT (SEQ ID NO: 172) (sugars from the 5' end r19 d2, backbone not given here)	1.72	0.78
RAG7-100: saRNA duplex; sense UUCCGAAAAGGACACCGUUTT (SEQ ID NO: 125), antisense AACGGUGUCCUUUUCGGAATT (SEQ ID NO: 289) (sugars from the 5' end r19 d2, backbone not given here)	1.17	0.22
RAG7-35: saRNA duplex; sense GGUUUGCACCCGGUCUUCUTT (SEQ ID NO: 24), antisense AGAAGACCGGGUGCAAACCTT (SEQ ID NO: 188) (sugars from the 5' end r19 d2, backbone not given here)	1.53	0.61
RAG7-726: saRNA duplex; sense GCAUUGUGAUAGUCCCGUUTT (SEQ ID NO: 127), antisense AACGGGACUAUCACAAUGCTT (SEQ ID NO: 291) (sugars from the 5' end r19 d2, backbone not given here)	1.17	0.22
RAG7-172: saRNA duplex; sense CCUUUGACCUUUCUUAGGGTT (SEQ ID NO: 81), antisense CCCUAAGAAAGGUCAAAGGTT (SEQ ID NO: 245) (sugars from the 5' end r19 d2, backbone not given here)	1.27	0.34
RAG7-121: saRNA duplex; sense CUGAUCUCCUGGGAAGAAATT (SEQ ID NO: 52), antisense UUUCUUCCCAGGAGAUCAGTT (SEQ ID NO: 216) (sugars from the 5' end r19 d2, backbone not given here)	1.36	0.45
RAG7-94: saRNA duplex; sense AAAGGACACCGUUUCAGGGTT (SEQ ID NO: 13), antisense CCCUGAAACGGUGUCCUUUTT (SEQ ID NO: 177) (sugars from the 5' end r19 d2, backbone not given here)	1.64	0.72
RAG7-885: saRNA duplex; sense CCAGAAGUAAAGUGUUCUCTT (SEQ ID NO: 147), antisense GAGAACACUUUACUUCUGGTT (SEQ ID NO: 311) (sugars from the 5' end r19 d2, backbone not given here)	1.14	0.18
RAG7-125: saRNA duplex; sense UCCGCUGAUCUCCUGGGAATT (SEQ ID NO: 55), antisense UUCCCAGGAGAUCAGCGGATT (SEQ ID NO: 219) (sugars from the 5' end r19 d2, backbone not given here)	1.36	0.44
RAG7-704: saRNA duplex; sense UUCUCAGCCCAGGUCCUAUTT (SEQ ID NO: 112), antisense AUAGGACCUGGGCUGAGAATT (SEQ ID NO: 276) (sugars from the 5' end r19 d2, backbone not given here)	1.19	0.26
RAG7-721: saRNA duplex; sense GUGAUAGUCCCGUUUUCUUTT (SEQ ID NO: 133), antisense AAGAAAACGGGACUAUCACTT (SEQ ID NO: 297) (sugars from the 5' end r19 d2, backbone not given here)	1.16	0.21
RAG7-720: saRNA duplex; sense UGAUAGUCCCGUUUUCUUCTT (SEQ ID NO: 62), antisense GAAGAAAACGGGACUAUCATT (SEQ ID NO: 226) (sugars from the 5' end r19 d2, backbone not given here)	1.33	0.41
RAG7-175: saRNA duplex; sense UUGCCUUUGACCUUUCUUATT (SEQ ID NO: 60), antisense UAAGAAAGGUCAAAGGCAATT (SEQ ID NO: 224) (sugars from the 5' end r19 d2, backbone not given here)	1.34	0.42
RAG7-907: saRNA duplex; sense GAAAGCUCAAAGCUAUGUUTT (SEQ ID NO: 22), antisense AACAUAGCUUUGAGCUUUCTT (SEQ ID NO: 186) (sugars from the 5' end r19 d2, backbone not given here)	1.55	0.63
RAG7-109: saRNA duplex; sense GAAGAAAGCUUCCGAAAAGTT (SEQ ID NO: 90), antisense CUUUUCGGAAGCUUUCUUCTT (SEQ ID NO: 254) (sugars from the 5' end r19 d2, backbone not given here)	1.24	0.31
RAG7-86: saRNA duplex; sense CCGUUUCAGGGGCGAGUGATT (SEQ ID NO: 137), antisense UCACUCGCCCCUGAAACGGTT (SEQ ID NO: 301) (sugars from the 5' end r19 d2, backbone not given here)	1.15	0.20
RAG7-899: saRNA duplex; sense AAAGCUAUGUUGGACCAGATT (SEQ ID NO: 84), antisense UCUGGUCCAACAUAGCUUUTT (SEQ ID NO: 248) (sugars from the 5' end r19 d2, backbone not given here)	1.26	0.33
RAG7-189: saRNA duplex; sense CUUCUUGUCUCAAUUUGCCTT (SEQ ID NO: 35), antisense GGCAAAUUGAGACAAGAAGTT (SEQ ID NO: 199) (sugars from the 5' end r19 d2, backbone not given here)	1.47	0.56
RAG7-852: saRNA duplex; sense ACUUGAAAGGUUCCGAGGGTT (SEQ ID NO: 128), antisense CCCUCGGAACCUUUCAAGUTT (SEQ ID NO: 292) (sugars from the 5' end r19 d2, backbone not given here)	1.17	0.22
RAG7-95: saRNA duplex; sense AAAAGGACACCGUUUCAGGTT (SEQ ID NO: 12), antisense CCUGAAACGGUGUCCUUUUTT (SEQ ID NO: 176) (sugars from the 5' end r19 d2, backbone not given here)	1.67	0.74
